Assay results published in patent US10308643B2, “Heterocyclic compound” (Takeda Pharmaceutical Company Limited, priority 2015, dated 2019).

Tests used:
Type in all cases: biochemical
HDAC1 enzyme = target: T1, HDAC1 enzyme (Homo sapiens, UniProt Q13547); assay: HDAC1/6 Enzyme Inhibitory Assay (HDAC-Glo I/II Assay kit), HDAC1; conditions: 1 μM test compound, wells without enzyme = 100% inhibition; for inhibition at 1 µM: read-out: HDAC1 inhibitory rate (%) (1 μM)
T1 construct: transducing full length HDAC1 and HDAC6 genes into Sf-9 insect cells; GST; purchased SignalChem; host or cells: Sf-9 insect cells
T1 sequence (Q13547 whole entry): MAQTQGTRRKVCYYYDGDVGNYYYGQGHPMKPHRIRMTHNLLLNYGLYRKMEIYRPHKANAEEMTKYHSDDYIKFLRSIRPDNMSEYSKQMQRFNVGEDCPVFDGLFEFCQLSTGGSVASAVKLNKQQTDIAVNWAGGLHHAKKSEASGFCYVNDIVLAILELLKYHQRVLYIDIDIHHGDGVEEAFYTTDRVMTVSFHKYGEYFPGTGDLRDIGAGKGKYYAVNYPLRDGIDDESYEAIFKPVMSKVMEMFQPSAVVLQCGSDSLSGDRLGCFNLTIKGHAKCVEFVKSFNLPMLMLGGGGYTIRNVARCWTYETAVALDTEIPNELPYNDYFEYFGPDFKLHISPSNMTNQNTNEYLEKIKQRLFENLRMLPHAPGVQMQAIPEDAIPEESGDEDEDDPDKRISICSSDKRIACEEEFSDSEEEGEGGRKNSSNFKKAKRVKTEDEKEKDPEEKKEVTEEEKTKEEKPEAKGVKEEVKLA
Procedure: (§1) HDAC1/6 Enzyme Inhibitory Assay
(§2) HDAC1 enzyme and HDAC6 enzyme each prepared by transducing full length HDAC1 and HDAC6 genes into Sf-9 insect cells and purifying by GST affinity column were purchased from SignalChem. Using these enzymes, HDAC1 and/or HDAC6 enzyme inhibitory activities of the compound of the present invention were evaluated. Enzymes were used after preserved at −70° C. HDAC1 or HDAC6 enzyme inhibitory activity of the compound of the present invention was measured using HDAC-Glo™ I/II Assay kit (Promega) according to the following experimental method. The test compound diluted with assay buffer (24 mM Tris-HCl (pH 7.5), 1 mM MgCl2, 0.35 mM KCl, 135 mM NaCl, 0.6 mM Glutathione, 0.01% Tween-20) was added to a 384-well plate by each 2 μL. Then, HDAC1 or HDAC6 enzyme solution diluted with assay buffer was added thereto by each 4 μL, and the plate was incubated at room temperature for 60 min. After incubated, HDAC substrate-Developer solution prepared according to Promega protocol attached to the assay kit was added to the 384-well plate by each 2 μL, and the enzyme reaction was started. After reacting at room temperature for 20 min, luminescence level was measured using plate reader Envision (PerkinElmer). The inhibitory activity of each compound was calculated as a relative activity value when luminescence level in wells without enzyme is considered as 100% inhibition.

HDAC9 enzyme = target: T2, HDAC9 enzyme (Homo sapiens, UniProt Q9UKV0); assay: HDAC9 Enzyme Inhibitory Assay (HDAC-Glo class IIa); conditions: 1 μM test compound, wells without enzyme = 100% inhibition; for inhibition at 1 µM: read-out: HDAC9 inhibitory rate (%) (1 μM)
T2 construct: transducing full length HDAC9 gene into Sf-9 insect cells; made in house; host or cells: Sf-9 insect cells
T2 sequence (Q9UKV0 whole entry, species assumed): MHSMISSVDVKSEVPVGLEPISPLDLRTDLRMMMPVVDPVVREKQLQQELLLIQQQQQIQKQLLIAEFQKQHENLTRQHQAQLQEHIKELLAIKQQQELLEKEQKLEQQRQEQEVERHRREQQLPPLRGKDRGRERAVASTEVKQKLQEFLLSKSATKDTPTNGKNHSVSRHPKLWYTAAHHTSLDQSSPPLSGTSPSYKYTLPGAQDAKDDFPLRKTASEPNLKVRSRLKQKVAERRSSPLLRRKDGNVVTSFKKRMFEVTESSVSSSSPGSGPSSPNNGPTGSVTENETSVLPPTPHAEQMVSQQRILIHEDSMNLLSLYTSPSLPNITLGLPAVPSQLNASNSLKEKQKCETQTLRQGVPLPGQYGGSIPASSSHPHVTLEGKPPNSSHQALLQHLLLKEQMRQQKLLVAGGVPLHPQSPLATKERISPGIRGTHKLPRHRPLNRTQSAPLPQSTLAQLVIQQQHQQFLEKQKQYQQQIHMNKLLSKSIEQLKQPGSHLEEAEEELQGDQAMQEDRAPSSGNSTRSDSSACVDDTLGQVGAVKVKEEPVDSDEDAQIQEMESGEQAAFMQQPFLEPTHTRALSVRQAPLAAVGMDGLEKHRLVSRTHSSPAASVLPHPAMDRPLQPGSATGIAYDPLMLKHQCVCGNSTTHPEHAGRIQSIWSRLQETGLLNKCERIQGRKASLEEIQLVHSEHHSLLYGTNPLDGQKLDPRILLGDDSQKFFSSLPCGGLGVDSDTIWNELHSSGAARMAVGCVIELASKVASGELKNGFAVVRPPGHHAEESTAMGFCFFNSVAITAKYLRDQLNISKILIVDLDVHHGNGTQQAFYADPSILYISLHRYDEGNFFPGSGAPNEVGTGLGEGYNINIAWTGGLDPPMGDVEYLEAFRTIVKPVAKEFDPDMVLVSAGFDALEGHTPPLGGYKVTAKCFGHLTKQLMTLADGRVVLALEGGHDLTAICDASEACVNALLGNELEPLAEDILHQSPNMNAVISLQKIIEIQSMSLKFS
Procedure: HDAC9 Enzyme Inhibitory Assay
Enzyme was prepared by transducing full length HDAC9 gene into Sf-9 insect cells and purifying by Ni-NTA affinity column, and HDAC9 enzyme inhibitory activity was evaluated. Enzymes were used after preserved at −70° C. HDAC9 enzyme inhibitory activity of the test compound was measured using HDAC-Glo class IIa (Promega) according to the following experimental method. The test compound diluted with assay buffer (24 mM Tris-HCl (pH 7.5), 1 mM MgCl2, 0.35 mM KCl, 135 mM NaCl, 0.6 mM Glutathione, 0.01% Tween-20) was added to a 384-well plate by each 2 μL. Then, HDAC9 enzyme solution diluted with assay buffer was added thereto by each 2 μL, and the plate was incubated at room temperature for 60 min. After incubated, HDAC substrate-Developer solution prepared according to Promega protocol was added to the 384-well plate by each 4 μL, and the enzyme reaction was started. After reacting at room temperature for 20 min, luminescence level was measured using plate reader Envision (PerkinElmer). The inhibitory activity of each compound was calculated as a relative activity value when luminescence level in wells without enzyme is considered as 100% inhibition.

HDAC6 enzyme = target: T3, HDAC6 enzyme (Homo sapiens, UniProt Q9UBN7); assay: HDAC1/6 Enzyme Inhibitory Assay (HDAC-Glo I/II Assay kit), HDAC6; conditions: 1 μM test compound, wells without enzyme = 100% inhibition; for inhibition at 1 µM: read-out: HDAC6 inhibitory rate (%) (1 μM)
T3 construct: transducing full length HDAC1 and HDAC6 genes into Sf-9 insect cells; GST; purchased SignalChem; host or cells: Sf-9 insect cells
T3 sequence (Q9UBN7 1-1215): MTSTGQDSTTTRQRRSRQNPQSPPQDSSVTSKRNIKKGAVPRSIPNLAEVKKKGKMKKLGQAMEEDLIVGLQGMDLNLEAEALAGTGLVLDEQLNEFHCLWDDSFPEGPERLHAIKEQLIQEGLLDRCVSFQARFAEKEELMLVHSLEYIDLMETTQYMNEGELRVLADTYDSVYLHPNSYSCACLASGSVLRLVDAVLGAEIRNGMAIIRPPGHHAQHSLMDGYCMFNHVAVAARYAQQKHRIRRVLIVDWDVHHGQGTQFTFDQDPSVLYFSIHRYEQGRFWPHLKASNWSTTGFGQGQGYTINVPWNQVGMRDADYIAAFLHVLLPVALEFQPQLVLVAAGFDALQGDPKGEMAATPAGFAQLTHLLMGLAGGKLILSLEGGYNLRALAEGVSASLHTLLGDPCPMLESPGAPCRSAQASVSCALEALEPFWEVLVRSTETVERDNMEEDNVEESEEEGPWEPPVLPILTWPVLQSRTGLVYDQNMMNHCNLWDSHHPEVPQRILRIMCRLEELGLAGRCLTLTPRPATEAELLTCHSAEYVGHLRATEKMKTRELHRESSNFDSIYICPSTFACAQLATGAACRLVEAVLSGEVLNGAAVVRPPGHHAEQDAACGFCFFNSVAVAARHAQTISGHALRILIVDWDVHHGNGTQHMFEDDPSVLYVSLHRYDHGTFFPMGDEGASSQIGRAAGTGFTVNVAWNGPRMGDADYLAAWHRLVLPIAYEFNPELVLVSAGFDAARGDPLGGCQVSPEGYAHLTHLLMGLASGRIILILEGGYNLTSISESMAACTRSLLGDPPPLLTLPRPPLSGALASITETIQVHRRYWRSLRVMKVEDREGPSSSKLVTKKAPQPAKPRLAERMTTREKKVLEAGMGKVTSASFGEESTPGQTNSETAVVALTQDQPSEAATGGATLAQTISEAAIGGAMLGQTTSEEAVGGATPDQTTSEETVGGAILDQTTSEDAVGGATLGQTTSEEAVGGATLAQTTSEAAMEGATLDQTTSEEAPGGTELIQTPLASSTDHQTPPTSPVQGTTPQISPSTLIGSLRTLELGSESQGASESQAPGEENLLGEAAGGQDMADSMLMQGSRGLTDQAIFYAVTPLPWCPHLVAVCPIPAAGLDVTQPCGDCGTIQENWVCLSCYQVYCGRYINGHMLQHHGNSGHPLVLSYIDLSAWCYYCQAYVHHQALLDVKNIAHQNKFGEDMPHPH
Procedure: as §1, §2

With `CC(=O)N1CCC(N2Cc3ncc(-c4noc(C(F)(F)F)n4)cc3C2=O)CC1` [Example 38, 6-(1-acetylpiperidin-4-yl)-3-(5-(trifluoromethyl)-1,2,4-oxadiazol-3-yl)-6,7-dihydro-5H-pyrrolo[3,4-b]pyridin-5-one] as the compound, how does the inhibition at 1 µM (HDAC1 enzyme) read?
Its inhibition at 1 µM is 25%.

What about the inhibition at 1 µM (HDAC9 enzyme) of the same compound?
The inhibition at 1 µM was 82%.

And the inhibition at 1 µM (HDAC6 enzyme)?
Its inhibition at 1 µM is 90%.

How did the inhibition at 1 µM (HDAC1 enzyme) turn out when `O=C(N[C@@H]1CCCC[C@H]1N1Cc2ccc(-c3noc(C(F)(F)F)n3)cc2C1=O)N1CC2CCC(C1)O2` [Example 146, N-((1R,2R)-2-(1-oxo-6-(5-(trifluoromethyl)-1,2,4-oxadiazol-3-yl)-1,3-dihydro-2H-isoindol-2-yl)cyclohexyl)-8-oxa-3-azabicyclo[3.2.1]octane-3-carboxamide] was run?
Its inhibition at 1 µM is 2%.

And the inhibition at 1 µM (HDAC9 enzyme)?
The inhibition at 1 µM was 23%.

And the inhibition at 1 µM (HDAC6 enzyme)?
The inhibition at 1 µM was 99%.

What does the source list for `CC1(C(=O)N[C@@H]2COCC[C@H]2N2Cc3ccc(-c4noc(C(F)(F)F)n4)cc3C2=O)COC1` [Example 83, 3-methyl-N-((3S,4R)-4-(1-oxo-6-(5-(trifluoromethyl)-1,2,4-oxadiazol-3-yl)-1,3-dihydro-2H-isoindol-2-yl)tetrahydro-2H-pyran-3-yl)oxetane-3-carboxamide]?
inhibition at 1 µM (HDAC1 enzyme): 5%; inhibition at 1 µM (HDAC9 enzyme): 52%; inhibition at 1 µM (HDAC6 enzyme): 101%

How did the inhibition at 1 µM (HDAC1 enzyme) turn out when `O=C(N[C@H]1CCCC[C@@H]1N1Cc2ccc(-c3noc(C(F)(F)F)n3)cc2C1=O)[C@H]1CCCO1` [Example 218, (2R)-N-((1S,2S)-2-(1-oxo-6-(5-(trifluoromethyl)-1,2,4-oxadiazol-3-yl)-1,3-dihydro-2H-isoindol-2-yl)cyclohexyl)tetrahydrofuran-2-carboxamide] was run?
The inhibition at 1 µM was 5%.

And the inhibition at 1 µM (HDAC9 enzyme)?
The inhibition at 1 µM was 29%.

And the inhibition at 1 µM (HDAC6 enzyme)?
The inhibition at 1 µM was 44%.

Which results are given for `O=C1c2cc(-c3noc(C(F)(F)F)n3)ccc2CN1[C@H]1C[C@@H]1c1ccccc1` (relative stereo) [Example 66, 2-(trans-2-phenylcyclopropyl)-6-(5-(trifluoromethyl)-1,2,4-oxadiazol-3-yl)isoindolin-1-one]?
inhibition at 1 µM (HDAC1 enzyme): 17%; inhibition at 1 µM (HDAC9 enzyme): 54%; inhibition at 1 µM (HDAC6 enzyme): 90%

For `O=C(N[C@H]1CCOC[C@H]1N1Cc2ccc(-c3noc(C(F)(F)F)n3)cc2C1=O)C1CC1(F)F` (single isomer, unassigned) [Example 214, (1R) or (1S)-2,2-difluoro-N-((3S,4S)-3-(1-oxo-6-(5-(trifluoromethyl)-1,2,4-oxadiazol-3-yl)-1,3-dihydro-2H-isoindol-2-yl)tetrahydro-2H-pyran-4-yl)cyclopropanecarboxamide], which “HDAC1 inhibitory rate (%) (1 μM)” value (HDAC1 enzyme) is on record?
Its value is 68%.

What about the “HDAC9 inhibitory rate (%) (1 μM)” value (HDAC9 enzyme) of the same compound?
The value was 97%.

And the “HDAC6 inhibitory rate (%) (1 μM)” value (HDAC6 enzyme; 1 µM)?
Its value is 98%.

What does the source list for `O=C(N[C@@H]1CCOC[C@H]1N1Cc2ccc(-c3noc(C(F)(F)F)n3)cc2C1=O)[C@@H]1CC1(F)F` [Example 172, (1S)-2,2-difluoro-N-((3S,4R)-3-(1-oxo-6-(5-(trifluoromethyl)-1,2,4-oxadiazol-3-yl)-1,3-dihydro-2H-isoindol-2-yl)tetrahydro-2H-pyran-4-yl)cyclopropanecarboxamide]?
inhibition at 1 µM (HDAC1 enzyme): 7%; inhibition at 1 µM (HDAC9 enzyme): 49%; inhibition at 1 µM (HDAC6 enzyme): 99%

With `O=C(N[C@@H]1CCCC[C@H]1N1Cc2ccc(-c3noc(C(F)(F)F)n3)cc2C1=O)[C@H]1CCCO1` [Example 129, (2R)-N-((1R,2R)-2-(1-oxo-6-(5-(trifluoromethyl)-1,2,4-oxadiazol-3-yl)-1,3-dihydro-2H-isoindol-2-yl)cyclohexyl)tetrahydrofuran-2-carboxamide] as the compound, how does the inhibition at 1 µM (HDAC1 enzyme) read?
Its inhibition at 1 µM is 9%.

What about the inhibition at 1 µM (HDAC9 enzyme) of the same compound?
Its inhibition at 1 µM is 45%.

What about the inhibition at 1 µM (HDAC6 enzyme) of the same compound?
The inhibition at 1 µM was 100%.

With `O=C1c2cc(-c3noc(C(F)(F)F)n3)ccc2CN1[C@@H]1CCOC[C@H]1c1ccccc1` (relative stereo) [Example 5, trans-2-(3-phenyltetrahydro-2H-pyran-4-yl)-6-(5-(trifluoromethyl)-1,2,4-oxadiazol-3-yl)isoindolin-1-one] as the compound, how does the “HDAC1 inhibitory rate (%) (1 μM)” value (HDAC1 enzyme) read?
The value was 78%.

What about the “HDAC9 inhibitory rate (%) (1 μM)” value (HDAC9 enzyme) of the same compound?
The value was 95%.

And the “HDAC6 inhibitory rate (%) (1 μM)” value (HDAC6 enzyme)?
Its value is 99%.
